Test results reported in US9114171B2, “Racecadotril liquid compositions” (McNeil-PPC, Inc., priority 2012, dated 2015).

Assay: Stability of Racecadotril in Beta-HPCD at 40° C., pH 3.6/4.0/4.5 (HPLC)
Format: physicochemical
Experimental: Test Methods Sample Preparation: • 1. Pipet 1 mL of Racecadotril solution into a 100 mL volumetric flask (V.F.) • 2. Dilute to volume with the same buffer used in the solution preparation. • 3. Further dilute the sample solution to about 0.1 mg/mL if necessary. […] Parameters may be modified to optimize chromatography. • The assay of Racecadotril is determined by using the external standard injected. The degradation products levels are determined by % peak area relative to the Racecadotril peak. Chromatographic Conditions (European Pharmacopoeia Racecadotril Method): [table] Gradient Table: [table] Mobil Phase A: Phosphate buffer, pH 2.5 (Buffer prep: dissolve 1 g of potassium dihydrogen phosphate in water, adjust to pH 2.5 with phosphoric acid, dilute to 1000 mL with water) Mobil Phase B: 100% Acetonitrile Stability of Racecadotril in Beta-Hydroxypropyl-Cyclodextrin (Beta-HPCD) at 40° C.

[1] = Acetate, pH 3.6, 40° C., 1 week
[2] = Acetate, pH 3.6, 40° C., 2 week
[3] = Acetate, pH 3.6, 40° C., 3 week
[4] = Acetate, pH 3.6, 40° C., 4 week
[5] = Acetate, pH 3.6, 40° C., 6 week
[6] = Acetate, pH 3.6, 40° C., 8 week
[7] = Acetate, pH 3.6, 40° C., Initial
[8] = Acetate, pH 4.0, 40° C., 1 week
[9] = Acetate, pH 4.0, 40° C., 2 week
[10] = Acetate, pH 4.0, 40° C., 3 week
[11] = Acetate, pH 4.0, 40° C., 4 week
[12] = Acetate, pH 4.0, 40° C., 6 week
[13] = Acetate, pH 4.0, 40° C., 8 week
[14] = Acetate, pH 4.0, 40° C., Initial
[15] = Acetate, pH 4.5, 40° C., 1 week
[16] = Acetate, pH 4.5, 40° C., 2 week
[17] = Acetate, pH 4.5, 40° C., 3 week
[18] = Acetate, pH 4.5, 40° C., 4 week
[19] = Acetate, pH 4.5, 40° C., 6 week
[20] = Acetate, pH 4.5, 40° C., 8 week
[21] = Acetate, pH 4.5, 40° C., Initial
[22] = Citrate, pH 3.6, 40° C., 1 week
[23] = Citrate, pH 3.6, 40° C., 2 week
[24] = Citrate, pH 3.6, 40° C., 3 week
[25] = Citrate, pH 3.6, 40° C., 4 week
[26] = Citrate, pH 3.6, 40° C., 6 week
[27] = Citrate, pH 3.6, 40° C., 8 week
[28] = Citrate, pH 3.6, 40° C., Initial
[29] = Citrate, pH 4.0, 40° C., 1 week
[30] = Citrate, pH 4.0, 40° C., 2 week
[31] = Citrate, pH 4.0, 40° C., 3 week
[32] = Citrate, pH 4.0, 40° C., 4 week
[33] = Citrate, pH 4.0, 40° C., 6 week
[34] = Citrate, pH 4.0, 40° C., 8 week
[35] = Citrate, pH 4.0, 40° C., Initial
[36] = Citrate, pH 4.5, 40° C., 1 week
[37] = Citrate, pH 4.5, 40° C., 2 week
[38] = Citrate, pH 4.5, 40° C., 3 week
[39] = Citrate, pH 4.5, 40° C., 4 week
[40] = Citrate, pH 4.5, 40° C., 6 week
[41] = Citrate, pH 4.5, 40° C., 8 week
[42] = Citrate, pH 4.5, 40° C., Initial

Benz Alcohol [1]: 0.69% | Impurity C [1]: 0.93% | Impurity G [1]: 1.17% | RAC [1]: 97.21% | Thiorphan [1]: 0.00% | Benz Alcohol [2]: 1.40% | Impurity C [2]: 1.87% | Impurity G [2]: 1.74% | RAC [2]: 94.88% | Thiorphan [2]: 0.11% | Benz Alcohol [3]: 2.13% | Impurity C [3]: 2.78% | Impurity G [3]: 1.93% | RAC [3]: 93.01% | Thiorphan [3]: 0.14% | Benz Alcohol [4]: 2.84% | Impurity C [4]: 3.56% | Impurity G [4]: 3.00% | RAC [4]: 90.15% | Thiorphan [4]: 0.30% | Benz Alcohol [5]: 4.33% | Impurity C [5]: 5.17% | Impurity G [5]: 3.82% | RAC [5]: 85.75% | Thiorphan [5]: 0.57% | Benz Alcohol [6]: 5.78% | Impurity C [6]: 6.33% | Impurity G [6]: 5.28% | RAC [6]: 80.68% | Thiorphan [6]: 1.00% | Benz Alcohol [7]: 0.00% | Impurity C [7]: 0.00% | Impurity G [7]: 0.07% | RAC [7]: 99.93% | Thiorphan [7]: 0.00% | Benz Alcohol [8]: 0.70% | Impurity C [8]: 0.93% | Impurity G [8]: 1.36% | RAC [8]: 97.01% | Thiorphan [8]: 0.00% | Benz Alcohol [9]: 1.39% | Impurity C [9]: 1.82% | Impurity G [9]: 1.70% | RAC [9]: 95.02% | Thiorphan [9]: 0.07% | Benz Alcohol [10]: 2.09% | Impurity C [10]: 2.83% | Impurity G [10]: 2.66% | RAC [10]: 92.23% | Thiorphan [10]: 0.19% | Benz Alcohol [11]: 2.84% | Impurity C [11]: 3.52% | Impurity G [11]: 3.62% | RAC [11]: 89.50% | Thiorphan [11]: 0.38% | Benz Alcohol [12]: 4.28% | Impurity C [12]: 5.16% | Impurity G [12]: 5.67% | RAC [12]: 83.98% | Thiorphan [12]: 0.71% | Benz Alcohol [13]: 5.37% | Impurity C [13]: 6.20% | Impurity G [13]: 8.46% | RAC [13]: 78.53% | Thiorphan [13]: 1.19% | Benz Alcohol [14]: 0.00% | Impurity C [14]: 0.00% | Impurity G [14]: 0.00% | RAC [14]: 100.00% | Thiorphan [14]: 0.00% | Benz Alcohol [15]: 0.02% | Impurity C [15]: 0.21% | Impurity G [15]: 3.17% | RAC [15]: 96.33% | Thiorphan [15]: 0.02% | Benz Alcohol [16]: 0.40% | Impurity C [16]: 0.40% | Impurity G [16]: 6.50% | RAC [16]: 92.61% | Thiorphan [16]: 0.04% | Benz Alcohol [17]: 0.59% | Impurity C [17]: 0.58% | Impurity G [17]: 9.43% | RAC [17]: 89.29% | Thiorphan [17]: 0.06% | Benz Alcohol [18]: 0.79% | Impurity C [18]: 0.72% | Impurity G [18]: 11.84% | RAC [18]: 86.50% | Thiorphan [18]: 0.11% | Benz Alcohol [19]: 1.14% | Impurity C [19]: 1.04% | Impurity G [19]: 17.32% | RAC [19]: 80.25% | Thiorphan [19]: 0.20% | Benz Alcohol [20]: 1.51% | Impurity C [20]: 1.25% | Impurity G [20]: 21.73% | RAC [20]: 75.06% | Thiorphan [20]: 0.36% | Benz Alcohol [21]: 0.02% | Impurity C [21]: 0.02% | Impurity G [21]: 0.21% | RAC [21]: 99.68% | Thiorphan [21]: 0.01% | Benz Alcohol [22]: 0.79% | Impurity C [22]: 0.98% | Impurity G [22]: 1.78% | RAC [22]: 96.45% | Thiorphan [22]: 0.00% | Benz Alcohol [23]: 1.72% | Impurity C [23]: 2.30% | Impurity G [23]: 3.81% | RAC [23]: 92.01% | Thiorphan [23]: 0.13% | Benz Alcohol [24]: 2.59% | Impurity C [24]: 3.36% | Impurity G [24]: 5.52% | RAC [24]: 88.22% | Thiorphan [24]: 0.31% | Benz Alcohol [25]: 3.38% | Impurity C [25]: 4.23% | Impurity G [25]: 7.38% | RAC [25]: 84.51% | Thiorphan [25]: 0.47% | Benz Alcohol [26]: 5.09% | Impurity C [26]: 6.13% | Impurity G [26]: 9.72% | RAC [26]: 77.91% | Thiorphan [26]: 1.11% | Benz Alcohol [27]: 6.64% | Impurity C [27]: 7.54% | Impurity G [27]: 12.47% | RAC [27]: 71.51% | Thiorphan [27]: 1.80% | Benz Alcohol [28]: 0.00% | Impurity C [28]: 0.00% | Impurity G [28]: 0.09% | RAC [28]: 99.91% | Thiorphan [28]: 0.00% | Benz Alcohol [29]: 0.89% | Impurity C [29]: 1.23% | Impurity G [29]: 1.95% | RAC [29]: 95.93% | Thiorphan [29]: 0.00% | Benz Alcohol [30]: 1.41% | Impurity C [30]: 1.82% | Impurity G [30]: 3.47% | RAC [30]: 93.19% | Thiorphan [30]: 0.11% | Benz Alcohol [31]: 2.36% | Impurity C [31]: 2.82% | Impurity G [31]: 4.79% | RAC [31]: 89.81% | Thiorphan [31]: 0.21% | Benz Alcohol [32]: 2.79% | Impurity C [32]: 3.43% | Impurity G [32]: 6.57% | RAC [32]: 86.78% | Thiorphan [32]: 0.40% | Benz Alcohol [33]: 4.19% | Impurity C [33]: 4.98% | Impurity G [33]: 9.24% | RAC [33]: 80.70% | Thiorphan [33]: 0.85% | Benz Alcohol [34]: 5.54% | Impurity C [34]: 6.22% | Impurity G [34]: 11.26% | RAC [34]: 75.46% | Thiorphan [34]: 1.42% | Benz Alcohol [35]: 0.00% | Impurity C [35]: 0.00% | Impurity G [35]: 0.00% | RAC [35]: 100.00% | Thiorphan [35]: 0.00% | Benz Alcohol [36]: 0.22% | Impurity C [36]: 0.18% | Impurity G [36]: 3.15% | RAC [36]: 96.44% | Thiorphan [36]: 0.01% | Benz Alcohol [37]: 0.40% | Impurity C [37]: 0.36% | Impurity G [37]: 6.04% | RAC [37]: 93.19% | Thiorphan [37]: 0.03% | Benz Alcohol [38]: 0.59% | Impurity C [38]: 0.52% | Impurity G [38]: 8.66% | RAC [38]: 90.20% | Thiorphan [38]: 0.06% | Benz Alcohol [39]: 0.79% | Impurity C [39]: 0.62% | Impurity G [39]: 11.16% | RAC [39]: 87.41% | Thiorphan [39]: 0.10% | Benz Alcohol [40]: 1.14% | Impurity C [40]: 0.90% | Impurity G [40]: 15.86% | RAC [40]: 82.05% | Thiorphan [40]: 0.17% | Benz Alcohol [41]: 1.51% | Impurity C [41]: 1.11% | Impurity G [41]: 19.95% | RAC [41]: 77.34% | Thiorphan [41]: 0.29% | Benz Alcohol [42]: 0.02% | Impurity C [42]: 0.01% | Impurity G [42]: 0.19% | RAC [42]: 99.71% | Thiorphan [42]: 0.01%
SMILES: CC(=O)SCC(Cc1ccccc1)C(=O)NCC(=O)OCc1ccccc1 (racemic) [Racecadotril]
